Assay results: PubChem BioAssay (NCI)
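How tested: cells in 96-well plates exposed to compound for 48 hours at five concentrations. At the GI50, growth is halved. The concentration for full growth arrest is given as TGI.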

What was measured:
Test in all cases: NCI tumour cell line growth inhibition, 48 h
M14 melanoma = test system: M14 melanoma
NCI-H460 lung = test system: NCI-H460 lung
SW-620 colon = test system: SW-620 colon
EKVX NSCLC = test system: EKVX NSCLC
HT29 colon = test system: HT29 colon
NCI/ADR-RES ovarian = test system: NCI/ADR-RES ovarian
T-47D breast = test system: T-47D breast
SK-MEL-2 melanoma = test system: SK-MEL-2 melanoma
HCT-116 colon = test system: HCT-116 colon
HCT-15 colon = test system: HCT-15 colon

Row | SMILES | GI50 (M14 melanoma) [µM] | TGI (M14 melanoma) [µM] | GI50 (NCI-H460 lung) [µM] | TGI (NCI-H460 lung) [µM] | GI50 (SW-620 colon) [µM] | TGI (SW-620 colon) [µM] | GI50 (EKVX NSCLC) [µM] | TGI (EKVX NSCLC) [µM] | GI50 (HT29 colon) [µM] | TGI (HT29 colon) [µM] | GI50 (NCI/ADR-RES ovarian) [µM] | TGI (NCI/ADR-RES ovarian) [µM] | GI50 (T-47D breast) [µM] | TGI (T-47D breast) [µM] | GI50 (SK-MEL-2 melanoma) [µM] | TGI (SK-MEL-2 melanoma) [µM] | GI50 (HCT-116 colon) [µM] | TGI (HCT-116 colon) [µM] | GI50 (HCT-15 colon) [µM] | TGI (HCT-15 colon) [µM]
1 | CN(Cc1ccc(C(F)(F)F)cc1)CC(O)C(=O)Nc1ccc(Cl)cc1 (stereo unspecified) | 1.52 | 3.05 | 1.59 | 3.21 | 1.54 | 3.1 | 1.18 | 2.51 | 1.39 | 2.77 | 1.58 | 3.02 | 1.38 | 2.87 | 1.93 | 3.62 | 1.12 | 2.6 | 1.28 | 2.61
2 | COC(=O)c1cc2c(cc1Cl)SC1=NN(C)S(=O)N1S2(=O)=O (stereo unspecified) | > 100 | > 100 | > 100 | > 100 | > 100 | > 100 | > 100 | > 100 | > 100 | > 100 | > 100 | > 100 | > 100 | > 100 | > 100 | > 100 | > 100 | > 100 | > 100 | > 100
3 | Oc1c(Cl)cc(Cl)c2ccc(Cn3cc(-c4cc(C(F)(F)F)cc(C(F)(F)F)c4)nn3)nc12 | 1.61 | 3.45 | 18.2 | 35.2 | 0.473 | 1.81 | 7.65 | 21 | 2.04 | 5.1 | 22.1 | 71.6 | 1.67 | 5.55 | 2.71 | 9.56 | 0.481 | 1.76 | 1.58 | 3.55
4 | CCC(C)Oc1nc2c(c(=O)n(C)c(=O)n2C)n1C (stereo unspecified) | > 100 | > 100 | > 100 | > 100 | > 100 | > 100 | > 100 | > 100 | > 100 | > 100 | > 100 | > 100 | > 100 | > 100 | > 100 | > 100 | > 100 | > 100 | > 100 | > 100
5 | Cc1ncc(C(=O)Nc2ccc(CN3CCN(C)CC3)c(C(F)(F)F)c2)cc1C#Cc1ccc(N)nc1 | 0.126 | 0.797 | 0.19 | 1.84 | 0.244 | 1.36 | 0.504 | 3.85 | 0.129 | 1.16 | 1.03 | 5.64 | 1.08 | 7.2 | 0.212 | 0.816 | 0.213 | 1.64 | 0.224 | 3.7
6 | NC(=O)[C@@H](CC1CC1)[C@@H](CCC(F)(F)F)C(=O)N[C@H]1N=C(c2ccccc2)c2cccc(F)c2NC1=O | > 100 | > 100 | > 100 | > 100 | > 100 | > 100 | > 100 | > 100 | > 100 | > 100 | > 100 | > 100 | 15.3 | 56.8 | > 100 | > 100 | > 100 | > 100 | > 100 | > 100
7 | O=c1c2cc(-c3ccccc3)sc2ncn1Cc1ccc(Cl)c(Cl)c1 | 25.7 | > 100 | 12.1 | > 100 | > 100 | > 100 | 16.3 | > 100 | 67.7 | > 100 | 19.5 | 59 | 31.8 | > 100 | 12.2 | 57.3 | 15 | 41.1 | 0.845 | > 100
8 | CCCCCCCCOC(=O)c1c(C)[nH]c(/C=C2\N=C(c3ccc[nH]3)C=C2OC)c1C | 0.0351 | 2.01 | 0.0765 | 11 | < 0.0181 | 1.56 | 0.12 | 9.15 | < 0.0179 | 1.43 | 0.0367 | 9.86 | 0.0556 | 10.4 | 0.0279 | 0.0952 | < 0.0177 | 1.25 | < 0.0163 | 3.15
9 | COc1ccc2c(c1OC)-c1c(c3ccc([N+](=O)[O-])cc3c(=O)n1CCCBr)C2=O | 27.2 | > 100 | 6.64 | 68.8 | 5.59 | > 100 | > 100 | > 100 |  |  | 26 | 98.9 | 97.3 | > 100 | > 100 | > 100 | 19 | > 100 |  | 
